Assay results taken from patent publication US11904051B2, “Shear stress sensitive liposomes” (Universität Basel, priority 2018, dated 2024).
Where “and” joins values, the source holds several entries; their conditions need not be identical. Identical values can stand only once.

Key:
[1] = reported previously; cited from earlier work
[2] = Release experiments with 5(6)-carboxyfluorescein-loaded large unilamellar vesicles (LUVET100), spontaneous and vortex-triggered; assay type: physicochemical; details: for Release at RT after 60 s vortex / Release 37° C. after 60 s vortex: mechanically induced release, 60 s vortexing; for Release at RT after 60 s vortex / Release at RT after 7 days: 22° C. (RT); for Release at RT after 7 days: spontaneous release of 5(6)-carboxyfluorescein; for release at 37° C. without vortexing: without vortexing/shaking
Source text: FIG. 8 Release experiments using 5(6)-carboxyfluorescein-loaded large unilamellar vesicles comprising 1,3-diheptadecanamidopropan-2-yl (2-(trimethylammonio) ethyl) phosphate (4) obtained via extrusion through a 100 nm track-edged filter membrane (LUVET100). Triggered release was induced by shaking the samples for a specific amount of time on a vortex-shaker.
Previously the inventors reported the 5(6)-carboxyfluorescein release from vesicles containing 1,3-palmitoylamido-1,3-deoxy-sn-glycero-2-phosphatidylcholine (2) (Holme et al., Nat. Nanotechnol. 2012, 7, 536-543). […] Increasing the Tm promises improved release properties. […] This leads to a lower leakage of the vesicles at 22° C. (room temperature) as well as 37° C. (average human body temperature) (FIG. 8). A prolongation if the acyl chain to the artificial C18 phospholipid 1,3-stearoylamido-1,3-deoxy-sn-glycero-2-phosphatidylcholine leads to an increased Tm of 52° C., but this phospholipid forms almost no liposomes anymore.
Each sample was treated with Triton X-100 to induce a full release of 5(6)-carboxy fluorescein.
Large unilamellar vesicles with a diameter of 100 nm (LUVET100) of the 1,3-diheptadecanamidopropan-2-yl (2-(trimethylammonio) ethyl) phosphate (4) were prepared following the extrusion protocol: in a 25 ml round bottom flask, 10 mg of the lipid was dissolved in CH2Cl2. After evaporation of the organic solvent, the film was further dried under high vacuum (40 mbar) overnight. Then the film was hydrated with the internal buffer for 30 min (1 ml, 50 mM 5(6)-carboxyfluorescein, 10 mM HEPES buffer (AppliChem), 10 mM NaCl dissolved in pure water, pH 7.4). Now at least 5 freeze-thaw cycles (liquid N2 to 65° C.) were carried out before the suspension was extruded 11 times using a Mini Extruder (Avanti Polar Lipids, USA) using track-edged filters with a mesh size of 100 nm (Whatman, USA). The external buffer was then exchanged on a size exclusion column (1.5×20 cm Sephadex G-50 column) in external buffer (107 mM NaCl dissolved in ultrapure water, 10 mM HEPES, pH 7.4).

[3] = Differential scanning calorimetry, main phase transition of vesicle membranes; assay type: physicochemical; details: for Tm: main phase transition temperature of liposome membrane
Source text: Interdigitation of membrane leaflets also influences the membranes main-phase transition temperature. […] Also, the value for the bilayer main-phase transition temperature is 11.5 K higher than the calculated critical temperature from the monolayer experiments, where no interdigitation is possible.

[4] = Dynamic light scattering of liposome formulations before and after SANS heating cycles; assay type: physicochemical; details: for PDI, After heating / Size (hydrodynamic), After heating: after the SANS experiments (n = 3); for Size (hydrodynamic), After heating: heating to 42° C. and back, eight months after; for Size (hydrodynamic), Before heating / PDI, Before heating: before the SANS experiments (n = 5); for Size (hydrodynamic), Before heating: room temperature, D2O
Protocol: A library of artificial phospholipids was synthesised. Table 5 summarises the characterisation of the liposomal formulations concerning hydrodynamic size and polydispersity, before and after the temperature-dependent SANS measurements. The size of the DPPC and Pad-PC-Pad liposomes was (120±2) nm with a polydispersity index between 0.01 and 0.20. […] Pad-Pad-PC and Sur-PC-Sur liposomes were 400 to 1,500 nm in size with a polydispersity index of 0.57.
DLS measurements were carried out on a DelsaMax PRO (Beckman Coulter, USA) at room temperature and at a lipid concentration of 0.3 mg/mL in D2O. The data were averaged among five independent measurements before heating cycles and three measurements eight months after applying heating cycles. Data were treated with the cumulant analysis method.

[5] = LUVs, heating and cooling rates of 0.5° C./min

Release at 37° C. after 2 h [2] [%]	Release at RT after 60 s vortex [2]	Release 37° C. after 60 s vortex [2] [%]	Release at RT after 7 days [2]	Tm [3] [°C]	PDI, After heating [4]	Size (hydrodynamic), After heating [4] [nm]	Size (hydrodynamic), Before heating [4] [nm]	Size (hydrodynamic), Before heating ([4]; listed as DPPC (1)) [nm]	PDI, Before heating ([4]; listed as DPPC (1))	change in enthalpy at main phase transition [3, 5] [kcal/mol]	main phase transition temperature [3, 5] [°C]	DLS most probable / dominant or smaller population size [4]	PDI, Before heating [4]	Size (hydrodynamic), Before heating ([4]; listed as Rad-PC-Rad (5)) [nm]	release at 37° C. without vortexing [2] [%]	release at 37° C. without vortexing ([2]; listed as 1,3-palmitoylamido-1,3-deoxy-sn-glycero-2-phosphatidylcholine)	Size (hydrodynamic), Before heating ([4]; listed as Pad-PC-Pad (4)) [nm]	PDI, Before heating ([4]; listed as Pad-PC-Pad (4))	Structure (SMILES)	Tm, main phase transition temperature [1] [°C]
12.2	1.1%	17.9	4.5%	41	0.33 ± 0.02	600 ± 40	120±2	120 ± 2	0.01 ± 0.01	–	–	–	–	–	–	–	–	–	CCCCCCCCCCCCCCCC(=O)OC[C@H](COP(=O)([O-])OCC[N+](C)(C)C)OC(=O)CCCCCCCCCCCCCCC [DPPC, 1,2-dipalmitoyl-sn-glycero-3-phosphocholine]	41
6	24% and 23.8%	34	9% and 9.4%	45	0.32 ± 0.03	700 ± 100	–	–	–	5.774	44.7	about 150 nm	0.57 ± 0.01	150 ± 3	–	–	–	–	CCCCCCCCCCCCCCCCC(=O)NCC(CNC(=O)CCCCCCCCCCCCCCCC)OP(=O)([O-])OCC[N+](C)(C)C [Rad-PC-Rad, 1,3-diheptadecanamidopropan-2-yl (2-(trimethylammonio)ethyl) phosphate]	45
100	43.4%	100	15.5%	37	0.33 ± 0.04	53 ± 4	120±2	–	–	–	–	–	–	–	100	immediate full release	126 ± 4	0.19 ± 0.04	CCCCCCCCCCCCCCCC(=O)NCC(CNC(=O)CCCCCCCCCCCCCCC)OP(=O)([O-])OCC[N+](C)(C)C [Pad-PC-Pad, 1,3-palmitoylamido-1,3-deoxy-sn-glycero-2-phosphatidylcholine]	37
